Assay results from paper PMC5627448, “Pharmacokinetics of carfilzomib in patients with advanced malignancies and varying degrees of hepatic impairment: an open-label, single-arm, phase 1 study” (Experimental Hematology & Oncology, 2017).

Key:
[1] = Plasma pharmacokinetics of carfilzomib and its major metabolites after 30-min IV infusion in patients with normal or impaired hepatic function; conditions: human, in vivo
Procedure: This was a phase 1, multicenter, open-label, nonrandomized, comparative PK study of carfilzomib in patients with normal hepatic function or mild-to-moderate hepatic impairment. The study was conducted at 12 sites in the USA, United Kingdom, France, and the Netherlands. […] Exploratory objectives included evaluation of overall response rate (ORR) and duration of response (DOR).
Patients received carfilzomib as a 30-min IV infusion on days 1, 2, 8, 9, 15, and 16 of 28-day cycles (Fig. 1). All patients were to receive doses of 20 mg/m^2 on days 1 and 2 of cycle 1. […]
Blood samples were collected to measure PK and plasma concentration of carfilzomib and its major metabolites (PR-389/M14, PR-413/M15, and PR-519/M16). […] Safety was assessed throughout the study and included the monitoring of adverse events (AEs) using National Cancer Institute-Common Terminology Criteria for Adverse Events, version 4.03 (NCI-CTCAE v4.03), clinical laboratory evaluations, and vital signs; echocardiograms and physical examinations were also performed. The exact type and frequency of disease or tumor response assessments depended upon tumor type and was assessed by the investigator using the appropriate measure for the underlying malignancy, including Response Evaluation Criteria in Solid Tumours version 1.1. […]

[2] = Safety: treatment-emergent adverse events, discontinuations and deaths (NCI-CTCAE v4.03) in patients by hepatic function; type: in vivo, human
Procedure: (§1) Blood samples were collected to measure PK and plasma concentration of carfilzomib and its major metabolites (PR-389/M14, PR-413/M15, and PR-519/M16). Samples were collected on day 16 of cycle 1 and day 1 of cycle 2 (or on subsequent infusion days when the intended dose levels were administered) before infusion; at 15 min after start of infusion; within 2 min before end of infusion; and at 5, 15, and 30 min (±2 min for each); and at 1, 2, and 4 h (±5 min for each) after end of the infusion (Fig. 1). Safety was assessed throughout the study and included the monitoring of adverse events (AEs) using National Cancer Institute-Common Terminology Criteria for Adverse Events, version 4.03 (NCI-CTCAE v4.03), clinical laboratory evaluations, and vital signs; echocardiograms and physical examinations were also performed. The exact type and frequency of disease or tumor response assessments depended upon tumor type and was assessed by the investigator using the appropriate measure for the underlying malignancy, including Response Evaluation Criteria in Solid Tumours version 1.1.
(§2) Safety was assessed for patients who received any carfilzomib dose. AEs were mapped to a preferred term and system organ class using MedDRA and were graded using the NCI-CTCAE v4.03. ORR was summarized along with 95% exact binomial CIs by cohorts.

[3] = test system: relapsed or progressive advanced malignancies; assay: Efficacy: best overall response as determined by investigator (RECIST 1.1 / IMWG-URC); type: in vivo, human; conditions: for Best overall response: complete response / Best overall response: partial response / Best overall response: progressive disease / Best overall response: stable disease / Best overall response: not evaluable: response-evaluable population
Procedure: as §1
For multiple myeloma patients, efficacy was assessed on day 1 of each cycle during treatment. For solid tumor patients, efficacy was assessed on day 1 of every other cycle [i.e., on day 1 (±7 days) of cycles 3, 5, 7, 9, etc.] during treatment.
as §2

[4] = cited from earlier work
Excerpt: Carfilzomib is an irreversible, proteasome inhibitor approved in the United States of America (USA) and Europe for the treatment of relapsed or refractory multiple myeloma in combination with lenalidomide + dexamethasone or with dexamethasone alone. […] In the normal hepatic function cohort, one outlier contributed to the extremely high variability. […] [6].

[5] = normal hepatic function, n = 11
[6] = normal hepatic function, n = 10
[7] = IV administration, patients with solid tumors

CC(C)C[C@H](NC(=O)[C@H](CCc1ccccc1)NC(=O)CN1CCOCC1)C(=O)N[C@@H](Cc1ccccc1)C(=O)N[C@@H](CC(C)C)C(=O)[C@@]1(C)CO1 [carfilzomib]
Higher carfilzomib AUC vs. normal hepatic function patients [1]: 20–50%
Mean T1/2 [1]: 30 to 42 min
Deaths considered related to treatment ([2]; both in mild hepatic impairment group: gastrointestinal hemorrhage and acute respiratory distress syndrome): Two
AE resulting in treatment discontinuation: increased blood bilirubin ([2]; human, in vivo): 2 patients
AE resulting in treatment discontinuation: pneumonitis ([2]; human, in vivo): one
Grade ≥3 AEs considered related to treatment, patients ([2]; human, in vivo): 33%
Grade ≥3 AEs, patients ([2]; human, in vivo): 76%
Serious AE: acute kidney injury ([2]; human, in vivo): three
Serious AE: anemia ([2]; human, in vivo): two
Serious AE: ascites ([2]; human, in vivo): three
Serious AE: hepatic encephalopathy ([2]; human, in vivo): two
Serious AE: increased blood bilirubin ([2]; human, in vivo): two
Serious AE: lower respiratory tract infection ([2]; human, in vivo): two
Serious AE: pneumonia ([2]; human, in vivo): two
Serious AE: sepsis ([2]; human, in vivo): three
Treatment-emergent AEs, patients ([2]; human, in vivo): 98%
Treatment discontinuation due to death ([2]; mild impairment, n = 17): 2 n
Treatment discontinuation due to disease progression ([2]; mild impairment, n = 17): 13 n
Treatment discontinuation due to death ([2]; moderate impairment, n = 14): 1 n
Treatment discontinuation due to disease progression ([2]; moderate impairment, n = 14): 7 n
Treatment discontinuation due to death [2, 5]: 1 n
Treatment discontinuation due to disease progression [2, 5]: 7 n
Deaths within 30 days after the last dose ([2]; safety population): Nine
Treatment discontinuation due to death ([2]; severe impairment, n = 4): 2 n
Treatment discontinuation due to disease progression ([2]; severe impairment, n = 4): 2 n
Treatment discontinuation due to death ([2]; total, N = 46): 6 n
Treatment discontinuation due to disease progression ([2]; total, N = 46): 29 n
Deaths among severe hepatic impairment patients ([2]; two progressive disease, two fatal AEs unrelated to treatment): four
Best overall response: complete response ([3]; mild impairment, n = 15): 0 (0.0) n (%)
Best overall response: partial response ([3]; mild impairment, n = 15): 0 (0.0) n (%)
Best overall response: progressive disease ([3]; mild impairment, n = 15): 12 (80.0) n (%)
Best overall response: stable disease ([3]; mild impairment, n = 15): 1 (6.7) n (%)
Best overall response: complete response ([3]; moderate impairment, n = 9): 0 (0.0) n (%)
Best overall response: not evaluable ([3]; moderate impairment, n = 9): 3 (33.3) n (%)
Best overall response: partial response ([3]; moderate impairment, n = 9): 0 (0.0) n (%)
Best overall response: progressive disease ([3]; moderate impairment, n = 9): 4 (44.4) n (%)
Best overall response: stable disease ([3]; moderate impairment, n = 9): 2 (22.2) n (%)
Best overall response: complete response [3, 6]: 0 (0.0) n (%)
Best overall response: not evaluable [3, 6]: 0 (0.0) n (%)
Best overall response: partial response [3, 6]: 1 (10.0) n (%)
Best overall response: progressive disease [3, 6]: 5 (50.0) n (%)
Best overall response: stable disease [3, 6]: 4 (40.0) n (%)
DOR of partial response ([3]; one multiple myeloma patient with normal hepatic function): ≥ 3 months
ORR ([3]; overall study population, n = 34, 95% CI 0.1–15.3%): 2.9%
Best overall response: complete response ([3]; total, n = 34): 0 (0.0) n (%)
Best overall response: not evaluable ([3]; total, n = 34): 5 (14.7) n (%)
Best overall response: partial response ([3]; total, n = 34): 1 (2.9) n (%)
Best overall response: progressive disease ([3]; total, n = 34): 21 (61.8) n (%)
Best overall response: stable disease ([3]; total, n = 34): 7 (20.6) n (%)
Cmax, historical data ([4]; 56 mg/m^2, geometric mean (geometric CV%)): 2079 (44%) ng/mL
Estimated clearance [4, 7]: high and exceeds hepatic blood flow
Time within which most of the drug is eliminated from the plasma compartment [4, 7]: ≤ 30 min
Difference in PK parameters, mild hepatic impairment vs normal hepatic function ([4]; population PK analysis, mild N = 143, normal N = 474): no statistically significant differences
